From patent US9604935B2, “Deuterated phenyl amino pyrimidine compound and pharmaceutical composition containing the same” (Suzhou Zelgen Biopharmaceuticals Co., Ltd., priority 2013, dated 2017) come the findings set out here.

Read-outs that look alike come from different tables or passages of the source.

A short description of this series: Pharmacokinetic evaluation in rats. The class given is in vivo. Particulars: male, Sprague-Dawley, rat, plasma, po, 3 mg/kg, 3 mg/kg by gavage. The protocol:
12 male Sprague-Dawley rats, 7-8 weeks old, of approximately 200 g body weight, were divided into three groups, four in each group.
Rats were feed with standard feed, and were given water, and were started to fast 16 hours before the test. The drug was dissolved in PEG400 and dimethylsulfoxide. Orbital blood collection was conducted, and the blood collection time is 0.25 hour, 0.5 hour, 1 hour, 2 hour, 4 hour, 6 hour, 8 hour, 12 hour, 24 hour, 36 hour and 48 hour after administration.
After inhalation of ether, the rats were shortly anesthesiaed; 300 μL of blood were collected from orbit into a test tube. There were 30 μL of 1% heparin saline solutions in the test tube. Before use, test tubes were dried overnight at 60° C. After the blood sample was collected in the subsequent time point, rats were anesthetized with ether and sacrificed.
After blood sampling, the tube was gently inverted at least 5 times immediately to ensure adequate mixing, and was placed on ice. Blood samples were 5000 rpm centrifuged at 4° C. for 5 minutes to separate the plasma and red blood cells. 100 μL of plasma was pipetted into a clean plastic centrifuge tube, and the name of compounds and the time point were indicated. Plasma was stored in −80° C. before use for the analysis. The concentration of the compound of the invention in plasma was determined with LC-MS/MS. The pharmacokinetic parameters were calculated based on the blood drug concentration of each animal at different time points.

[1] abbreviates: group G3, Mean of 4 rats, read-out: AUCINF_obs.
The mark [2] stands for this setting: group G3, rat 9, read-out: AUCINF_obs.
Where [3] appears, read: group G3, rat 10, read-out: AUCINF_obs.
Where [4] appears, read: group G3, rat 11, read-out: AUCINF_obs.
[5] abbreviates: group G3, rat 12, read-out: AUCINF_obs.
[6] abbreviates: group G1, Mean of 4 rats, read-out: AUCINF_obs.
Where [7] appears, read: group G1, rat 1, read-out: AUCINF_obs.
[8] abbreviates: group G1, rat 2, read-out: AUCINF_obs.
The mark [9] stands for this setting: group G1, rat 3, read-out: AUCINF_obs.
Where [10] appears, read: group G1, rat 4, read-out: AUCINF_obs.

For the compound `[2H]C1([2H])OC([2H])([2H])C([2H])([2H])N(c2ccc(Nc3nccc(-c4ccc(C(=O)NCC#N)cc4)n3)cc2)C1([2H])[2H]` [example 1, N-(cyanomethyl)-4-(2-(4-(d8-morpholino)phenylamino)pyrimidine-4-yl)benzamide], the AUC(0-t) (usually the area under the concentration-time curve up to a stated or last time point) reads like this: (group G3 (Table 3), mean±SD) 3960 ± 1480 ng·h/mL; (group G3, Mean of 4 rats) 3960 ng·h/mL; (group G3, rat 9) 6170 ng·h/mL; (group G3, rat 10) 3250 ng·h/mL; (group G3, rat 11) 3160 ng·h/mL; (group G3, rat 12) 3240 ng·h/mL. In addition, the Cmax (usually the highest concentration seen after dosing) (group G3 (Table 3), mean±SD) is 653 ± 275 ng/mL; the concentration (group G3, Mean of 4 rats) peaked (Cmax) at 653 ng/mL; the Cmax (group G3, rat 9) stood at 1060 ng/mL; the highest level (group G3, rat 10) (Cmax) was 596 ng/mL; the Cmax (group G3, rat 11) is 476 ng/mL; the highest level (group G3, rat 12) (Cmax) was 483 ng/mL. Further, the Tmax (usually the time from dosing to the highest level) is, setting by setting: (group G3, Mean of 4 rats) 3.5 h; (group G3, rat 9) 4 h; (group G3, rat 10) 4 h; (group G3, rat 11) 2 h; (group G3, rat 12) 4 h. Further, the AUC(0-inf) reads like this: under setting [1], 4060 ng·h/mL; under setting [2], 6300 ng·h/mL; under setting [3], 3370 ng·h/mL; under setting [4], 3250 ng·h/mL; under setting [5], 3320 ng·h/mL.
For the compound `[2H]C([2H])(C#N)NC(=O)c1ccc(-c2ccnc(Nc3ccc(N4C([2H])([2H])C([2H])([2H])OC([2H])([2H])C4([2H])[2H])cc3)n2)cc1` [example 3, N-(cyano(d2-methyl))-4-(2-(4-(d8-morpholino)phenylamino)pyrimidin-4-yl)benzamide], the AUC(0-t) (group G3 (Table 3), mean±SD) stood at 2720 ± 922 ng·h/mL; the AUC(0-t) (group G3, Mean of 4 rats) was found to be 2720 ng·h/mL; the AUC(0-t) (group G3, rat 9) was found to be 4100 ng·h/mL; the AUC(0-t) (group G3, rat 10) was 2300 ng·h/mL; the AUC(0-t) (group G3, rat 11) is 2190 ng·h/mL; the AUC(0-t) (group G3, rat 12) amounted to 2290 ng·h/mL. The Cmax is, setting by setting: (group G3 (Table 3), mean±SD) 447 ± 170 ng/mL; (group G3, Mean of 4 rats) 447 ng/mL; (group G3, rat 9) 694 ng/mL; (group G3, rat 10) 419 ng/mL; (group G3, rat 11) 329 ng/mL; (group G3, rat 12) 344 ng/mL. Also, the Tmax (group G3, Mean of 4 rats) came to 3.5 h; the Tmax (group G3, rat 9) turned out to be 4 h; the Tmax (group G3, rat 10) stood at 4 h; the Tmax (group G3, rat 11) was found to be 2 h; the Tmax (group G3, rat 12) came to 4 h. The AUC(0-inf) is 2790 ng·h/mL under setting [1]; 4180 ng·h/mL under setting [2]; 2350 ng·h/mL under setting [3]; 2260 ng·h/mL under setting [4]; 2350 ng·h/mL under setting [5].
Regarding `[2H]C1([2H])COCC([2H])([2H])N1c1ccc(Nc2nccc(-c3ccc(C(=O)NCC#N)cc3)n2)cc1` [example 5, N-(cyanomethyl)-4-(2-(4-(2′,2′,6′,6′-d4-morpholino)phenylamino)pyrimidin-4-yl)benzamide], the AUC(0-t) turned out to be 5390 ± 1230 ng·h/mL (group G2 (Table 2), mean±SD); 5390 ng·h/mL (group G2, Mean of 4 rats); 6820 ng·h/mL (group G2, rat 5); 5460 ng·h/mL (group G2, rat 6); 5470 ng·h/mL (group G2, rat 7); 3810 ng·h/mL (group G2, rat 8). Further, the Cmax (group G2 (Table 2), mean±SD) was found to be 972 ± 307 ng/mL; the Cmax (group G2, Mean of 4 rats) was determined as 972 ng/mL; the concentration (group G2, rat 5) peaked (Cmax) at 1410 ng/mL; the Cmax (group G2, rat 6) was determined as 922 ng/mL; the Cmax (group G2, rat 7) turned out to be 875 ng/mL; the Cmax (group G2, rat 8) was 686 ng/mL. Moreover, the Tmax (group G2, Mean of 4 rats) is 3.5 h; the Tmax (group G2, rat 5) was 2 h; the Tmax (group G2, rat 6) is 4 h; the Tmax (group G2, rat 7) came out at 4 h; the Tmax (group G2, rat 8) was found to be 4 h. Besides, the AUC(0-inf) amounted to 5440 ng·h/mL (group G2, Mean of 4 rats, read-out: AUCINF_obs); 6850 ng·h/mL (group G2, rat 5, read-out: AUCINF_obs); 5490 ng·h/mL (group G2, rat 6, read-out: AUCINF_obs); 5520 ng·h/mL (group G2, rat 7, read-out: AUCINF_obs); 3900 ng·h/mL (group G2, rat 8, read-out: AUCINF_obs).
Regarding `[2H]C([2H])(C#N)NC(=O)c1ccc(-c2ccnc(Nc3ccc(N4CC([2H])([2H])OC([2H])([2H])C4)cc3)n2)cc1` [example 6], the AUC(0-t) reads like this: (group G1 (Table 1), mean±SD) 1900 ± 1100 ng·h/mL; (group G1, Mean of 4 rats) 1900 ng·h/mL; (group G1, rat 1) 2730 ng·h/mL; (group G1, rat 2) 514 ng·h/mL; (group G1, rat 3) 2840 ng·h/mL; (group G1, rat 4) 1520 ng·h/mL. Besides, the Cmax runs as follows: (group G1 (Table 1), mean±SD) 282 ± 158 ng/mL; (group G1, Mean of 4 rats) 282 ng/mL; (group G1, rat 1) 423 ng/mL; (group G1, rat 2) 94.6 ng/mL; (group G1, rat 3) 403 ng/mL; (group G1, rat 4) 207 ng/mL. Also, the Tmax (group G1, Mean of 4 rats) is 2.56 h; the Tmax (group G1, rat 1) stood at 0.25 h; the Tmax (group G1, rat 2) came to 4 h; the Tmax (group G1, rat 3) came out at 4 h; the Tmax (group G1, rat 4) is 2 h. In addition, the AUC(0-inf) is, setting by setting: under setting [6], 1940 ng·h/mL; under setting [7], 2740 ng·h/mL; under setting [8], 561 ng·h/mL; under setting [9], 2920 ng·h/mL; under setting [10], 1530 ng·h/mL.
On to `[2H]C([2H])(C#N)NC(=O)c1ccc(-c2ccnc(Nc3ccc(N4CCOCC4)cc3)n2)cc1` [example 8, N-(cyano(d2-methyl))-4-(2-(4-morpholinophenylamino)pyrimidin-4-yl)benzamide], for which the AUC(0-t) stood at 2090 ± 1220 ng·h/mL (group G1 (Table 1), mean±SD); 2090 ng·h/mL (group G1, Mean of 4 rats); 3090 ng·h/mL (group G1, rat 1); 574 ng·h/mL (group G1, rat 2); 3050 ng·h/mL (group G1, rat 3); 1630 ng·h/mL (group G1, rat 4). Besides, the Cmax turned out to be 309 ± 175 ng/mL (group G1 (Table 1), mean±SD); 309 ng/mL (group G1, Mean of 4 rats); 469 ng/mL (group G1, rat 1); 101 ng/mL (group G1, rat 2); 438 ng/mL (group G1, rat 3); 227 ng/mL (group G1, rat 4). Also, the Tmax runs as follows: (group G1, Mean of 4 rats) 2.56 h; (group G1, rat 1) 0.25 h; (group G1, rat 2) 4 h; (group G1, rat 3) 4 h; (group G1, rat 4) 2 h. Further, the AUC(0-inf) under setting [6] was 2120 ng·h/mL; the AUC(0-inf) under setting [7] was 3100 ng·h/mL; the AUC(0-inf) under setting [8] amounted to 616 ng·h/mL; the AUC(0-inf) under setting [9] is 3130 ng·h/mL; the AUC(0-inf) under setting [10] turned out to be 1640 ng·h/mL.
